From patent US10538442B2, “Water treatment” (priority 2015, dated 2020)

Columns and labels:
[1] = test system: Desulfovibrio vulgaris; assay: Log 10 reduction of viable count of anaerobic bacterium in dosed suspension (serial dilution into API RP 38 media vials); format: cell-based; conditions: for Log 10 Reduction Anaerobes: TDS 30,000 mg l^-1, 5 = complete kill; for effectiveness against anaerobes (in words): short contact times, summary of Table 1, combination compared with chlorine dioxide alone
Description: (§1) A suspension of Desulfovibrio vulgaris plus Enterobacter aerogenes bacteria containing from 1×10^5 to 1×10^6 cells/mL was prepared in sterile pH 8 phosphate buffer containing sodium chloride to give the desired total dissolved solids (TDS) concentration. Aliquots of this suspension were dosed with the indicated concentrations of the compounds (a) and (b) with the concentrations being measured as ppm by weight of the stated composition in the dosed suspension. The mixtures were allowed to stand at room temperature. At the designated contact times, each mixture was sampled to determine the total number of viable cells of both Desulfovibrio vulgaris and Enterobacter aerogenes by serial 10-fold dilution into API RP 38 media vials and anaerobic acid producing media vials, respectively. The vials were incubated at 37° C. for 72 hours. Results were recorded as log10 reduction in the viable count versus the control.
(§2) Aqueous media inoculated with anaerobe and aerobe culture and having a TDS of 30,000 mg l^−1 was treated with treatment agents comprising: (i) tri n-butyl n-tetradecyl phosphonium chloride (TTPC); (ii) chlorine dioxide; or (ill) a combination of TTPC and chlorine dioxide.
(§3) TTPC was used in the form of Bellacide 350, an aqueous composition of TTPC and water consisting of water and 50% by weight of TTPC available from BWA Water Additives.
(§4) Chlorine dioxide was used in the form of CDG Solution 3000 a 0.3% aqueous solution of chlorine dioxide available from CDG Environmental, LLC.
(§5) The efficacy of the treatment agents was evaluated by measuring the Log 10 Reduction of the anaerobic bacterium Desulfovibrio vulgaris and the facultative anaerobic bacterium Enterobacter aerogenes after contact times of 10 minutes, 30 minutes and 60 minutes as detailed in Table 1. For TTPC the stated ppm value relates to the amount of TTPC added (active). For the chlorine dioxide the stated ppm relates to the amount of free residual of chlorine dioxide.

[2] = test system: Enterobacter aerogenes; assay: Log 10 reduction of viable count of facultative anaerobic bacterium in dosed suspension (serial dilution into anaerobic acid producing media vials); format: cell-based; conditions: for Log 10 Reduction Facultative Anaerobes: TDS 30,000 mg l^-1, 6 = complete kill; for effectiveness against aerobes (in words): short contact times, summary of Table 1, combination compared with chlorine dioxide alone
Description: as §1, §2, §3, §4, §5

[3] = contact time 10 minutes, TTPC 3.125 ppm active
[4] = contact time 10 minutes, TTPC 6.25 ppm active
[5] = contact time 30 minutes, TTPC 3.125 ppm active
[6] = contact time 30 minutes, TTPC 6.25 ppm active
[7] = contact time 60 minutes, TTPC 3.125 ppm active
[8] = contact time 60 minutes, TTPC 6.25 ppm active
[9] = contact time 10 minutes, chlorine dioxide 0.25 ppm free residual
[10] = contact time 10 minutes, chlorine dioxide 0.5 ppm free residual
[11] = contact time 30 minutes, chlorine dioxide 0.25 ppm free residual
[12] = contact time 30 minutes, chlorine dioxide 0.5 ppm free residual
[13] = contact time 60 minutes, chlorine dioxide 0.25 ppm free residual
[14] = contact time 60 minutes, chlorine dioxide 0.5 ppm free residual

CCCCCCCCCCCCCC[P+](CCCC)(CCCC)CCCC.[Cl-] [TTPC, tri n-butyl n-tetradecyl phosphonium chloride]
Log 10 Reduction Anaerobes [1, 3]: 0 | Log 10 Reduction Anaerobes [1, 4]: 0 | Log 10 Reduction Anaerobes [1, 5]: 0 | Log 10 Reduction Anaerobes [1, 6]: 2 | Log 10 Reduction Anaerobes [1, 7]: 0 | Log 10 Reduction Anaerobes [1, 8]: 5 | effectiveness against anaerobes (in words) [1]: ineffective | Log 10 Reduction Facultative Anaerobes [2, 3]: 0 | Log 10 Reduction Facultative Anaerobes [2, 4]: 0 | Log 10 Reduction Facultative Anaerobes [2, 5]: 0 | Log 10 Reduction Facultative Anaerobes [2, 6]: 1 | Log 10 Reduction Facultative Anaerobes [2, 7]: 0 | Log 10 Reduction Facultative Anaerobes [2, 8]: 1 | effectiveness against aerobes (in words) [2]: ineffective

[O][Cl+][O-] [chlorine dioxide]
Log 10 Reduction Anaerobes [1, 9]: 3 | Log 10 Reduction Anaerobes [1, 10]: 4 | Log 10 Reduction Anaerobes [1, 11]: 3 | Log 10 Reduction Anaerobes [1, 12]: 5 | Log 10 Reduction Anaerobes [1, 13]: 3 | Log 10 Reduction Anaerobes [1, 14]: 5 | effectiveness against anaerobes (in words) [1]: effective | Log 10 Reduction Facultative Anaerobes [2, 9]: 3 | Log 10 Reduction Facultative Anaerobes [2, 10]: 6 | Log 10 Reduction Facultative Anaerobes [2, 11]: 3 | Log 10 Reduction Facultative Anaerobes [2, 12]: 6 | Log 10 Reduction Facultative Anaerobes [2, 13]: 3 | Log 10 Reduction Facultative Anaerobes [2, 14]: 6 | effectiveness against aerobes (in words) [2]: effective
